# Test results taken from PMC3001719, “The heme sensing response regulator HssR in Staphylococcus aureus but not the homologous RR23 in Listeria monocytogenes modulates susceptibility to the antimicrobial peptide plectasin” (BMC Microbiology, 2010).
# Legend:
# L. monocytogenes [1] = assay: ATP leakage (intracellular and extracellular ATP, bioluminescence); assay type: cell-based, Listeria monocytogenes; details: L. monocytogenes, 500 μg/ml peptide, 50 mM HEPES pH 7.0 with 0.2% glucose, vs peptide dilution buffer
# Description: (§1) L. monocytogenes and S. aureus were grown in TSB at 37°C. Bacteria were harvested (10 min at 3000 RPM) at mid-exponential phase (absorbance at 546 nm of 2.5 ± 0.2 and 1.0 ± 0.2 for S. aureus and L. monocytogenes, respectively), washed once in 50 mM potassium phosphate buffer pH 7.0 and once in 50 mM HEPES buffer pH 7.0. The pellet was resuspended in 50 mM HEPES pH 7.0 to a final absorbance at 546 nm of 10. Bacteria were stored on ice and used within 5 hours. […] ATP was determined using a bioluminescence kit (Sigma, FLAA-1KT) and a BioOrbit 1253 luminometer. Total ATP content was determined by rapidly permeabilising 20 μl cell suspension with 80 μl dimethyl sulfoxide. The cell suspension was diluted in 4.9 ml sterile water, and ATP content was determined in 100 μl of the preparation as described by the manufacturer. To determine the extracellular ATP concentration, the 20 μl cell suspension was mixed with 80 μl sterile water and analyzed as described above. Intracellular ATP concentrations were calculated by using the intracellular volumes of 0.85 and 1.7 μm^3 for S. aureus and L. monocytogenes, respectively. The number of cells in suspension was determined by plate spreading.
# [2] = system: S. aureus 8325-4 hssR::bursa; assay: In vitro bacterial killing kinetics; assay type: cell-based, Staphylococcus aureus; details: plectasin 1× MIC, TSB, 37°C, CFU after 1, 3 and 5 hours; 8325-4 hssR::bursa mutant
# Description: Overnight cultures of S. aureus wild type […], 8325-4 hssR::bursa and 8325-4 hssR::bursa/pRMC2-hssRS were diluted 1000 fold in TSB and grown 2 hours at 37°C. Samples were taken to time T = 0 and plated for CFU determination. Plectasin (1× MIC) was added, and samples were withdrawn after 1,3 and 5 hours growth at 37°C and plated for CFU determination.
# [3] = system: S. aureus 8325-4 hssR::bursa/pRMC2-hssRS (complementation of hssR transposon mutant); assay: MIC, microbroth dilution; assay type: cell-based, Staphylococcus aureus; details: 8325-4 hssR::bursa/pRMC2-hssRS compared to 8325-4 hssR::bursa, MIC
# Description: Protamine was purchased from Sigma (P4020-5G). Plectasin, eurocin, novicidin, and novispirin G10 were supplied by Department of Antiinfective Discovery, Novozymes A/S. The host defence peptides were dissolved in 0.01% acetic acid/0.1% bovine serum albumin (Sigma, A7906).
# Minimal inhibitory concentrations (MIC) of plectasin, eurocin, protamine, novicidin, and novispirin G10 were determined using a microbroth dilution method. Colonies from a BHI plate incubated overnight at 37 °C were suspended in MHB pH 7.4 to an absorbance at 546 nm of 0.11-0.12 at 546 nm (approx. 1.0 × 10^8 CFU/ml) and diluted in MHB to a concentration of 5.0 × 10^5 CFU/ml. Ninety μl of bacterial suspension was incubated with 10 μl of peptide solution in polypropylene 96-well plates (Nunc, 442587) for 18-24 h at 37°C. The peptide solutions were made fresh on the day of assay. The range of concentrations assayed were 0.25-256 μg/ml for plectasin and eurocin, 0.125-128 μg/ml for protamine and novispirin G10, and 0.031-32 μg/ml for novicidin. MIC was the lowest peptide concentration at which visual growth was inhibited.
# S. aureus wild type = assay: Spontaneous mutation control on plectasin plates; assay type: cell-based, Staphylococcus aureus; details: S. aureus wild type grown on TSB with 4, 5 or 10 fold MIC of plectasin
# Description: The transposon mutant libraries were screened on agar plates for increased resistance to plectasin as compared to wild-type sensitivity. Wild-type sensitivity was determined by plating approx. 1.0 × 10^7 CFU/ml on TSB agar containing plectasin (S. aureus) and approx. 1.0 × 10^5 CFU/ml on Muller Hinton Broth agar plates (MHB, 212322 Becton Dickinson) with plectasin (L. monocytogenes). Plates were incubated at 37°C for 3 days and inspected for growth. The transposon libraries were screened on TSB agar with 300 μg/ml, 500 or 750 μg/ml plectasin (S. aureus) or MHB plates with 250 μg/ml or 500 μg/ml plectasin (L. monocytogenes) at 37°C for up to 7 days.
# S. aureus = assay: ATP leakage (intracellular and extracellular ATP, bioluminescence); assay type: cell-based, Staphylococcus aureus; details: S. aureus, 500 μg/ml peptide, 50 mM HEPES pH 7.0 with 0.2% glucose, vs peptide dilution buffer; two independent experiments
# Description: as §1
# L. monocytogenes [4] = assay: Extracellular protein profile by SDS-PAGE; assay type: cell-based, Listeria monocytogenes; details: L. monocytogenes grown with or without plectasin overnight at 37°C in BHI; data not shown
# Description: Prewarmed TSB and BHI (25 ml) in a 250 ml Erlenmeyer flask was inoculated with S. aureus strains and L. monocytogenes strains, respectively. These flasks were grown with and without plectasin at 37°C overnight (≈ 17 h) with shaking. The next morning, the exact absorbance at 600 nm of the cultures was measured, and 15 ml of culture was centrifuged to precipitate the cells (6 000 RPM; 7 min; 0°C). The supernatant was transferred to a 50 ml Blue cap bottle (placed in an ice/water bath), and the extracellular proteins were precipitated by adding one volume of ice-cold 96% EtOH and left in the refrigerator overnight for proteins to precipitate. Precipitated proteins were collected by centrifugation (11,000 RPM; 30 min; 0°C). Protein pellets were suspended in a volume of 50 mM Tris-HCl (pH 6.8) adjusted to the original absorbance of the overnight culture so that 15 ml of overnight culture with absorbance at 600 nm of 5.0 was suspended in 0.8 ml of 50 mM Tris-HCl (pH 6.8). A sample of 15 μl of the protein extracts was analysed on NuPAGE® 4-12% Bis-Tris gels (Invitrogen) using the X Cell SureLock® Mini-Cell system (Invitrogen) as recommended by the supplier. The gels were Coomassie stained using GelCode® Blue Stain Reagent (Pierce).
# [5] = system: mice, human keratinocytes and erythrocytes; details: in mice and on human keratinocytes and erythrocytes; cited from earlier work
# Excerpt: Recently, the antimicrobial peptide, plectasin isolated from a saprophytic fungus, was described.
# L. monocytogenes [6] = assay: MIC of plectasin stated in the text; assay type: cell-based, Listeria monocytogenes; details: difference in MIC values between the strains
# [7] = system: L. monocytogenes wild type; assay: Spontaneous mutation control on plectasin plates; assay type: cell-based, Listeria monocytogenes; details: L. monocytogenes wild type grown on BHI with 4, 5 or 10 fold MIC of plectasin
# Description: The transposon mutant libraries were screened on agar plates for increased resistance to plectasin as compared to wild-type sensitivity. Wild-type sensitivity was determined by plating approx. 1.0 × 10^7 CFU/ml on TSB agar containing plectasin (S. aureus) and approx. […] Plates were incubated at 37°C for 3 days and inspected for growth. […]
smiles,measurement,setting,value
CC[C@H](C)[C@@H]1NC(=O)[C@H](CO)NC(=O)[C@H](CCCCN)NC(=O)[C@@H]2CSSC[C@@H](C(=O)N[C@@H](Cc3ccc(O)cc3)C(=O)O)NC(=O)[C@H](CCCCN)NC(=O)[C@@H]3CSSC[C@H](NC(=O)[C@H](CCC(N)=O)NC(=O)[C@H](CCSC)NC(=O)[C@H](CC(=O)O)NC(=O)[C@H](CC(=O)O)NC(=O)[C@H](CCC(=O)O)NC(=O)[C@H](CC(=O)O)NC(=O)[C@H](Cc4c[nH]c5ccccc45)NC(=O)[C@@H]4CCCN4C(=O)CNC(=O)[C@H](CC(N)=O)NC(=O)[C@@H](NC(=O)CNC(=O)[C@H](Cc4ccccc4)NC(=O)CN)CSSC[C@H](NC(=O)[C@H](Cc4ccc(O)cc4)NC(=O)CNC(=O)CNC(=O)[C@H](CCCCN)NC(=O)[C@H](Cc4ccc(O)cc4)NC(=O)CNC(=O)[C@H](CCCCN)NC1=O)C(=O)N[C@@H](C)C(=O)N[C@@H](CCCCN)C(=O)NCC(=O)NCC(=O)N[C@@H](Cc1ccccc1)C(=O)N[C@@H](C(C)C)C(=O)N3)C(=O)N[C@@H](Cc1c[nH]cn1)C(=O)N[C@@H](CC(N)=O)C(=O)N[C@@H](Cc1c[nH]cn1)C(=O)N2 [plectasin],ATP leakage (intracellular ATP concentration),L. monocytogenes [1],remained at the same level as the controls
same,Kinetics of bacterial killing in vitro,[2],killed slower than the wild type
same,Decrease of resistance by complementation,[3],2 fold
same,Spontaneous mutations leading to changes in sensitivity,S. aureus wild type,no spontaneous mutations
same,ATP leakage (intracellular ATP concentration),S. aureus,remained at the same level as the controls
same,Abundance of extracellular proteins,L. monocytogenes [4],no difference in the abundance of extracellular proteins
same,Toxicity,[5],very low toxicity
same,Tolerance of L. monocytogenes compared to S. aureus,L. monocytogenes [6],4-8 fold
same,Spontaneous mutations leading to changes in sensitivity,[7],no spontaneous mutations
